From PMC6820371, “Terbium-161 for PSMA-targeted radionuclide therapy of prostate cancer” (European Journal of Nuclear Medicine and Molecular Imaging, 2019)

Columns and labels:
PC-3 PIP tumor cells [1] = assay: Cell viability assay (MTT assay); format: cell-based, human; settings: DTPA complexes, 0.01–20 MBq/mL; marginal reduction at higher concentration
Protocol: The detailed methods of these studies, including dosimetric calculations, are described in the Supplementary material. The results were analyzed for statistical significance by a two-way ANOVA with Sidak’s multiple comparison post-test using Graph Pad Prism (version 7).
Methods: Tumor cell viability was assessed using a 3-(4,5-dimethylthiazol-2-yl)-2,5-diphenyltetrazolium bromide (MTT) assay as described by Mosmann. PC-3 PIP tumor cells (2500 cells in 200 μL RPMI medium with supplements) were seeded in 96-well plates and incubated overnight (37°C; 5% CO2) to allow adhesion of the tumor cells. The supernatants were removed and the tumor cells were washed once with 200 μL PBS. Afterwards, the tumor cells were incubated in 200 μL RPMI medium (without supplements) containing ^161Tb-PSMA-617 or ^177Lu-PSMA-617 (0.01‒20 MBq/mL), respectively, or just RPMI medium without addition of radioligands. PSMA-negative PC-3 flu tumor cells were also treated with these radioligands under the same experimental conditions using the same concentration range. Additional cell viability assays were performed with PC-3 PIP tumor cells incubated with RPMI medium (without supplements) containing ^161Tb-diethylenetriaminepentaacetic acid (DPTA) or ^177Lu-DTPA (0.01 – 20 MBq/mL). After 4 h incubation (37 °C; 5% CO2), the tumor cells were washed once with 200 μL PBS, followed by the addition of 200 μL of RPMI medium (with supplements) to each well. The tumor cells were left to grow for 6 days under standard cell culture conditions (37 °C, 5% CO2). At Day 6 after treatment, MTT reagent (5 mg/mL in PBS, 30 μL per well) was added to each well to allow the formation of dark-violet formazan crystals within 4 h incubation. The crystals were dissolved by the addition of dimethyl sulfoxide to determine the absorbance at 560 nm using a microplate reader (Victor X3, Perkin Elmer). Cell viability was quantified by expressing the absorbance of the test samples as percentage of the absorbance of control (untreated) cell samples which was set to 100%. Statistical analysis was performed using a two-way ANOVA with Sidak’s multiple comparison post-test in Graph Pad Prism (version 7).

PC-3 PIP tumor cells [2] = assay: Cell survival assay (clonogenic assay); format: cell-based, human; settings: DTPA complexes, 0.01–10 MBq/mL; marginal reduction at higher concentration
[3] = test system: PSMA-negative PC-3 flu tumor cells; assay: Tumor cell uptake and internalization; format: cell-based; settings: 2–4 h incubation
[4] = test system: PSMA-positive PC-3 PIP tumor cells; assay: Tumor cell uptake and internalization; format: cell-based, human; settings: 2–4 h incubation
[5] = test system: PC-3 PIP tumor-bearing mice; set-up: method as in PMID 29684274; settings: 5.0 MBq; cited from earlier work
[6] = set-up: method as in Benešová et al. [4]; settings: PBS pH 7.4; ref Benešová et al. [4]; cited from earlier work
[7] = set-up: method as in Benešová et al. 2018 [4]; settings: saline, in the presence of l-ascorbic acid, up to 24 h; ref Benešová et al. 2018 [4]; cited from earlier work
[8] = test system: mice inoculated with PC-3 PIP cells; assay: Additional therapy study (injection 2 days after tumor cell inoculation); format: in vivo; settings: for Median Survival: control 26 days
Protocol: The day of the treatment, two days after tumor cell inoculation, was defined as Day 0 of the study (Table S7).
Endpoint criteria: The mice were monitored until they reached an endpoint (definition of endpoints, see Chapter 13) or over the whole period of 38 days when the study was terminated.
Data analysis of the therapy study: The tumor growth delay indices (TGDI2 and TGDI5) were calculated as reported in the Methods of the main manuscript. The median survival was determined using GraphPad Prism software (version 7).

Structure (SMILES): O=C([O-])CN(CCN(CC(=O)[O-])CC(=O)[O-])CCN(CC(=O)[O-])CC(=O)[O-].[161Tb+3] [^161Tb-DPTA, ^161Tb-diethylenetriaminepentaacetic acid, reference compound]
- Viability of PC-3 PIP tumor cells (PC-3 PIP tumor cells [1]): not affected
- Survival of PC-3 PIP tumor cells (PC-3 PIP tumor cells [2]): not affected

Structure (SMILES): O=C([O-])CN(CCN(CC(=O)[O-])CC(=O)[O-])CCN(CC(=O)[O-])CC(=O)[O-].[177Lu+3] [^177Lu-DTPA, reference compound]
- Viability of PC-3 PIP tumor cells (PC-3 PIP tumor cells [1]): not affected
- Survival of PC-3 PIP tumor cells (PC-3 PIP tumor cells [2]): not affected

Structure (SMILES): O=C([O-])CN1CCN(CC(=O)[O-])CCN(CC(=O)NCC2CCC(C(=O)N[C@@H](Cc3ccc4ccccc4c3)C(=O)NCCCC[C@H](NC(=O)N[C@@H](CCC(=O)O)C(=O)O)C(=O)O)CC2)CCN(CC(=O)[O-])CC1.[177Lu+3] (stereo partly shown) [^177Lu-PSMA-617, reference compound]
- Uptake in PC-3 flu tumor cells [3]: < 0.5%
- PC-3 PIP tumor cell uptake [4]: 49–58%
- Internalized fraction ([4]; PC-3 PIP): 9–12%
- Last mouse euthanized [5]: 40 days
- Median Survival [5]: 32 days
- TGDI2 [5]: 2.1 ± 0.3
- n-octanol/PBS distribution coefficient (logD value) [6]: –4.4 ± 0.1
- Stability (intact radioligand) [7]: ≥ 98%
- First mouse euthanized ([8]; 2.5 MBq): 20 days
- TGDI2 ([8]; 2.5 MBq): 0.8 ± 0.4
- TGDI5 ([8]; 2.5 MBq): 1.0 ± 0.3
- Median Survival ([8]; 2.5 MBq): 27 days
- Last mouse euthanized ([8]; 2.5 MBq, study end Day 38): study end
- First mouse euthanized ([8]; 5.0 MBq): 24 days
- TGDI2 ([8]; 5.0 MBq): 1.0 ± 0.4
- Median Survival ([8]; 5.0 MBq): 30 days
- Last mouse euthanized ([8]; 5.0 MBq, study end Day 38): study end
- Survival ([8]; 10 MBq): survived until the end of the study at Day 38
- Cases in which tumors started to regrow ([8]; 10 MBq, from about Day 20 on): 50%
- First mouse euthanized ([8]; 10 MBq, study end Day 38): Study end
- Last mouse euthanized ([8]; 10 MBq, study end Day 38): study end
